Common to all, as to format: cell-based
For one experiment, the system named is PC3 cells. The experiment is described as follows: Cell Viability Assay (ATPlite 1step), PC3. The conditions noted are these: Homo sapiens, PC-3, 72 hours; for percent inhibition of cell viability at 4 µM: PC3, 4 uM compound, read-out: Cell Viability % inhibition PC3 (4 uM Cpd); for percent inhibition of cell viability at 20 µM: PC3, 20 uM compound, read-out: Cell Viability % inhibition PC3 (20 uM Cpd). As to the method:
(§1) Cell Viability Assay Protocol
(§2) Cells were trypsinized, counted, and re-seeded into a 384-well tissue culture plate at 1000 cells per well in […] media. Cells were incubated at 37° C. in an atmosphere of 5% CO2 for 24 hours. Experimental compounds, initially dissolved in DMSO and diluted further in media were added to the wells and incubated for 72 hours. Cell viability was measured using the ATPlite 1step Luminescence Detection Assay system (Perkin Elmer) as described in the Assay kit instructions.
(§3) Cell Culture Lines and Media: (1) A2780 cells were cultured in RPMI media with 10% FBS and 1% antibiotics. Cells were typically split every 3-5 days at a 1:10 dilution; (2) PC3 cells were cultured in RPMI media with 10% FBS and 1% antibiotics. Cells were typically split every 3-5 days at a 1:4 dilution; (3) MCF-7 cells were grown in K-12F media with 10% FBS and 1% antibiotics. Cells were typically split every 3-5 days at a 1:10 dilution.

For another experiment, the system named is A2780 cells. As to the kind of experiment: Cell Viability Assay (ATPlite 1step), A2780. The settings on record: Homo sapiens, 72 hours; for percent inhibition of cell viability at 4 µM: A2780, 4 uM compound, read-out: Cell Viability % inhibition A2780 (4 uM Cpd); for percent inhibition of cell viability at 20 µM: A2780, 20 uM compound, read-out: Cell Viability % inhibition A2780 (20 uM Cpd). As to the method:
as §1, §2, §3
For orientation: Cellular ATP, detected with luciferase, serves as a proxy for viable cell number.

For a further experiment, the system named is MCF-7 cells. As to the kind of experiment: Cell Viability Assay (ATPlite 1step), MCF-7. The settings on record: Homo sapiens, MCF7, 72 hours; for percent inhibition of cell viability at 4 µM: MCF-7, 4 uM compound, read-out: Cell Viability % inhibition MCF-7 (4 uM Cpd); for percent inhibition of cell viability at 20 µM: MCF-7, 20 uM compound, read-out: Cell Viability % inhibition MCF-7 (20 uM Cpd). As to the method: as §1, §2, §3

As for `Cc1ncc(C(=O)Nc2ccc(-c3cc(NC4CC4)cc(N4CCN(C)CC4)c3)c(C)n2)cn1` [Compound 52, N-{5-[3-cyclopropylamino-5-(4-methylpiperazin-1-yl)phenyl]-6-methylpyridin-2-yl}-2-methylpyrimidine-5-carboxamide], the percent inhibition of cell viability at 4 µM in the experiment with PC3 cells is 35%; with A2780 cells it was 8%; with MCF-7 cells, -1.6%. Besides, the results for the percent inhibition of cell viability at 20 µM with PC3 cells, in the experiment with A2780 cells and with MCF-7 cells were 52.5%, 69.5% and 22.2%, respectively.
For the molecule `Cc1ncc(C(=O)Nc2ccc(-c3ccccc3)cn2)cn1` [Compound 8, 2-methyl-N-(5-phenylpyridin-2-yl)pyrimidine-5-carboxamide], the percent inhibition of cell viability at 4 µM in the experiment with PC3 cells is 71.6%; in the experiment with A2780 cells, 89.8%; in the experiment with MCF-7 cells, 68.7%. Besides, the percent inhibition of cell viability at 20 µM in the experiment on PC3 cells is 71.7%; with A2780 cells, 90.8%; with MCF-7 cells, 74.5%.
As for `CNC(=O)c1cccc(-c2ccc(NC(=O)c3cncnc3)nc2)c1` [Compound 17, N-{5-[3-(methylcarbamoyl)phenyl]pyridin-2-yl}pyrimidine-5-carboxamide], the percent inhibition of cell viability at 4 µM with PC3 cells was 62.8%; with A2780 cells it was 84.5%; in the experiment on MCF-7 cells it was 56.3%. The percent inhibition of cell viability at 20 µM worked out at 81.7% with PC3 cells, 91.7% with A2780 cells and 75.5% in the experiment on MCF-7 cells.
On to `O=C(Nc1ccc(-c2ccccc2)cn1)c1cccnc1` [Compound 10, N-(5-phenylpyridin-2-yl)pyridine-3-carboxamide], for which the values for the percent inhibition of cell viability at 4 µM in the experiment with PC3 cells, in the experiment with A2780 cells and with MCF-7 cells were 71.8%, 92.7% and 61.4%, respectively. In addition, the results for the percent inhibition of cell viability at 20 µM in the experiment on PC3 cells, with A2780 cells and with MCF-7 cells were 87.3%, 95.2% and 86.4%, respectively.
For the molecule `Nc1ncc(C(=O)Nc2ccc(-c3ccccc3)cn2)cn1` [Compound 9, 2-amino-N-(5-phenylpyridin-2-yl)pyrimidine-5-carboxamide], the percent inhibition of cell viability at 4 µM in the experiment with PC3 cells amounted to 70.7%; in the experiment on A2780 cells, 92.5%; with MCF-7 cells, 70.9%. The percent inhibition of cell viability at 20 µM is 76.7% with PC3 cells, 90.6% with A2780 cells and 75.5% in the experiment on MCF-7 cells.
Regarding `O=C(Nc1ccc(-c2ccco2)cn1)c1cncnc1` [Compound 20, N-[5-(furan-2-yl)pyridin-2-yl]pyrimidine-5-carboxamide], the percent inhibition of cell viability at 4 µM with PC3 cells came to 59.9%; with A2780 cells, 84%; with MCF-7 cells, 56.3%. Moreover, the percent inhibition of cell viability at 20 µM with PC3 cells amounted to 69.4%; in the experiment with A2780 cells it was 91.1%; in the experiment on MCF-7 cells, 61.2%.
For `Cc1ncc(C(=O)Nc2ccc(-c3cc(NC4CC4)cc(N4CCN(C)CC4)c3)cn2)cn1` [Compound 51, N-{5-[3-cycopropylamino-5-(4-methylpiperazin-1-yl)phenyl]pyridin-2-yl}-2-methylpyrimidine-5-carboxamide], the percent inhibition of cell viability at 4 µM turned out to be 17.3% in the experiment on PC3 cells, 6.8% in the experiment with A2780 cells and 22.9% with MCF-7 cells. Further, the percent inhibition of cell viability at 20 µM in the experiment with PC3 cells worked out at 65.7%; with A2780 cells, 76%; with MCF-7 cells, 49.5%.
For the molecule `O=C(Nc1ncc(-c2ccccc2)cn1)c1cncnc1` [Compound 12, N-(5-phenylpyrimidin-2-yl)pyrimidine-5-carboxamide], the percent inhibition of cell viability at 4 µM with PC3 cells worked out at 59.7%; in the experiment on A2780 cells, 82.7%; in the experiment on MCF-7 cells, 53.7%. Moreover, the percent inhibition of cell viability at 20 µM with PC3 cells was determined as 69.2%; in the experiment with A2780 cells it was 91.3%; in the experiment with MCF-7 cells, 69.8%.
Consider `COc1cccc(-c2ccc(NC(=O)c3cncnc3)nc2)c1` [Compound 18, N-[5-(3-methoxyphenyl)pyridin-2-yl]pyrimidine-5-carboxamide], for which the percent inhibition of cell viability at 4 µM amounted to 66.2% in the experiment on PC3 cells, 88.5% in the experiment with A2780 cells and 58.8% in the experiment with MCF-7 cells. In addition, the percent inhibition of cell viability at 20 µM stood at 76.5% in the experiment with PC3 cells, 91.5% with A2780 cells and 75.4% in the experiment with MCF-7 cells.
Turning to `Cc1ncc(C(=O)Nc2ncc(-c3cccc(NC4CC4)c3)cc2F)cn1` [Compound 68, N-{5-[3-(cyclopropylamino)phenyl]-3-fluoropyridin-2-yl}-2-methylpyrimidine-5-carboxamide], the percent inhibition of cell viability at 4 µM in the experiment on PC3 cells is 58.4%; in the experiment with A2780 cells, 87.1%; with MCF-7 cells, 54.3%. Moreover, the percent inhibition of cell viability at 20 µM with PC3 cells was determined as 64.4%; in the experiment with A2780 cells, 89%; with MCF-7 cells, 59.3%.
On to `Cc1ncc(C(=O)Nc2ccc(-c3csc(C)c3)cn2)cn1` [Compound 62, 2-methyl-N-[5-(5-methylthiophen-3-yl)pyridin-2-yl]pyrimidine-5-carboxamide], for which the figures for the percent inhibition of cell viability at 4 µM in the experiment with PC3 cells, with A2780 cells and in the experiment with MCF-7 cells were 54.8%, 85.2% and 59.4%, respectively. In addition, the percent inhibition of cell viability at 20 µM with PC3 cells stood at 65.1%; with A2780 cells it was 89.9%; with MCF-7 cells it was 67%.
For `Cc1ncc(C(=O)Nc2ccc(-c3cc(Cl)cc(N4CCN(C)CC4)c3)cn2)cn1` [Compound 47, N-{5-[3-chloro-5-(4-methylpiperazin-1-yl)phenyl]pyridin-2-yl}-2-methylpyrimidine-5-carboxamide], the percent inhibition of cell viability at 4 µM with PC3 cells amounted to 63.2%; in the experiment on A2780 cells, 88.7%; in the experiment on MCF-7 cells, 40.6%. Moreover, the results for the percent inhibition of cell viability at 20 µM in the experiment on PC3 cells, in the experiment with A2780 cells and in the experiment with MCF-7 cells were 78.6%, 95.5% and 64.6%, respectively.
For `O=C(Nc1ccc(-c2ccccn2)cn1)c1cncnc1` [Compound 15, N-(3,2′-bipyridin-6-yl)pyrimidine-5-carboxamide], the percent inhibition of cell viability at 4 µM in the experiment on PC3 cells turned out to be 40.8%; in the experiment on A2780 cells it was 68.8%; in the experiment on MCF-7 cells it was 34.5%. Besides, the percent inhibition of cell viability at 20 µM with PC3 cells is 48.2%; in the experiment on A2780 cells, 73.4%; in the experiment with MCF-7 cells it was 25.6%.
For the molecule `Cc1ncc(C(=O)Nc2ncc(-c3cc(Cl)cc(N4CCNCC4)c3)cc2F)cn1` [Compound 54, N-{5-[3-chloro-5-(piperazin-1-yl)phenyl]-3-Fluoropyridin-2-yl}-2-methylpyrimidine-5-carboxamide], the percent inhibition of cell viability at 4 µM was 0.2% in the experiment with PC3 cells, -6.4% in the experiment on A2780 cells and 23.8% in the experiment on MCF-7 cells. Further, the percent inhibition of cell viability at 20 µM with PC3 cells amounted to 34.8%; in the experiment with A2780 cells it was 64.6%; in the experiment on MCF-7 cells, 42.6%.

The values above are taken from US12383533B2 (Frost Biologic, Inc., priority 2014, dated 2025).
